Measurements reported in US12653191B2, “Active compound combinations” (Bayer Aktiengesellschaft, priority 2020, dated 2026).
Like-named read-outs stand apart in the source and are kept apart here.

Assays:
[1] = tested on: Ustilago segetum var. avenae; assay: in vitro-Test with fungal microorganisms, Method A (tables I1-I5); format: cell-based; details: alone, read-out: Efficacy %
Method: (§1) Example: In Vitro-Test with Fungal Microorganisms
(§2) Wells of 96-well microtiter plates are filled with 10 μl of a preparation of test compound or compound combination in methanol+emulsifier alkylaryl-polyglycol-ether. Thereafter, the solvent is evaporated in a hood. At the next step, 100 μl of liquid potato dextrose medium is given into each well, that has been amended with an appropriate concentration of spores or mycelium suspension of the test fungus.
(§3) With the aid of a photometer, the extinction in all wells is measured at the wavelength of 620 nm.
(§4) The microtiter plates are incubated at 20° C. and 85% relative humidity. The inhibition of growth is determined again photometrically 3-5 days after the application. Efficacy is calculated in relation to the untreated control, 0% efficacy means fungal growth as high as in untreated control while 100% efficacy means no fungal growth is measured.
(§5) The data in tables A1 to A12, B1 to B14, C1 to C10, D1 to D8, E1 to E8, F1 to F11, G1 to G4, H1 to H4 and I1 to I5 were collected according to Method A. The data in tables A13 to A22, B15 to B18, C11 to C20, E9 to E16, F12 to F15, G5 to G15, H5 to H8, I6 to I11 and J1 to J11 were collected according to Method B.

[2] = tested on: Diaporthe citri; assay: in vitro-Test with fungal microorganisms, Method A (tables F1-F11); format: cell-based; details: Diaporthe citri, read-out: Efficacy
Procedure, shortened: (§6)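 Readout: extinction at 620 nm, measured at start and again 3-5 days later, giving efficacy versus untreated control (0% = control growth, 100% = no growth). Compounds were evaporated from methanol/emulsifier before adding potato dextrose medium with fungal spores or mycelium; incubation 20° C, 85% RH.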

[3] = tested on: Botrytis cinerea; assay: in vitro-Test with fungal microorganisms, Method A (tables B1-B14); format: cell-based; details: Botrytis cinerea
Procedure, shortened: as §6

[4] = tested on: Cercospora beticola; assay: in vitro-Test with fungal microorganisms, Method A (tables C1-C10); format: cell-based; details: Cercospora beticola, read-out: Efficacy %
Procedure, shortened: as §6

[5] = tested on: Alternaria alternate; assay: in vitro-Test with fungal microorganisms, Method A (tables A1-A12); format: cell-based, Alternaria alternata; details: Alternaria, applied alone, read-out: Efficacy %
Procedure, shortened: as §6

[6] = tested on: Fusarium culmorum; assay: in vitro-Test with fungal microorganisms, Method A (tables G1-G4); format: cell-based
Method: as §1, §2, §3, §4, §5

[7] = tested on: Cercospora beticola; assay: in vitro-Test with fungal microorganisms, Method B (tables C11-C20); format: cell-based; details: Cercospora beticola, read-out: Efficacy %
Procedure, shortened: (§7)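 Cpd in MeOH + alkylaryl-polyglycol-ether, solvent evaporated; liquid medium + fungal spores/mycelium added; OD600 read; 3–7 d, 20° C., 85% RH; growth inhibition by photometry, % efficacy vs untreated ctrl.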

[8] = tested on: Cordana musae; assay: in vitro-Test with fungal microorganisms, Method A (tables E1-E8); format: cell-based; details: Neocordana musae, single substance, read-out: Efficacy %
Method: as §1, §2, §3, §4, §5

[9] = tested on: Colletotrichum lindemuthianum; assay: in vitro-Test with fungal microorganisms, Method A (tables D1-D8); format: cell-based; details: Colletotrichum lindemuthianum, read-out: Efficacy %
Method: as §1, §2, §3, §4, §5

[10] = tested on: Alternaria alternata; assay: in vitro-Test with fungal microorganisms, Method B (tables A13-A22); format: cell-based; details: Alternaria alternata, read-out: Efficacy
Procedure, shortened: as §7

[11] = tested on: Botrytis cinerea; assay: in vitro-Test with fungal microorganisms, Method B (tables B15-B18); format: cell-based; details: Botrytis cinerea, alone, read-out: Efficacy %
Method: as §1
Wells of 96-well microtiter plates are filled with 30 μl of a preparation of test compound or compound combination in methanol+emulsifier alkylaryl-polyglycol-ether. Thereafter, the solvent is evaporated in a hood. At the next step, 200 μl of liquid growth medium is given, that has been amended with an appropriate concentration of spores or mycelium suspension of the test fungus.
With the aid of a photometer, the extinction in all wells is measured at the wavelength of 600 nm.
The microtiter plates are incubated for 3 to 7 days at 20° C. and 85% relative humidity. After the incubation inhibition of growth is determined photometrically. Efficacy is calculated in relation to the untreated control, 0% efficacy means fungal growth as high as in untreated control while 100% efficacy means no fungal growth is measured.
as §5

[12] = tested on: Colletotrichum coccodes; assay: in vitro-Test with fungal microorganisms, Method B (tables J1-J11); format: cell-based; details: Colletotrichum coccodes, read-out: Efficacy %
Procedure, shortened: as §7

[13] = tested on: Ustilago segetum var. avenae; assay: in vitro-Test with fungal microorganisms, Method B (tables I6-I11); format: cell-based; details: 1 ppm; read-out: Efficacy %
Procedure, shortened: as §7

[14] = tested on: Cordana musae; assay: in vitro-Test with fungal microorganisms, Method B (tables E9-E16); format: cell-based; details: Neocordana musae, single active, read-out: Efficacy
Procedure, shortened: as §7

Cc1cc(C2=NOCC(Cc3ccc(Br)cc3C)N2)c(Oc2cccc(Cl)c2F)nn1 (racemic) [Compound I-300, rac-5-[(4-bromo-2-methylphenyl)methyl]-3-[3-(3-chloro-2-fluorophenoxy)-6-methylpyridazin-4-yl]-5,6-dihydro-4H-1,2,4-oxadiazine]
inhibition of growth at 0.0008 ppm ([1]; 0.0008 ppm): 0% | inhibition of growth at 0.004 ppm ([1]; 0.004 ppm): 0% | inhibition of growth at 0.02 ppm ([1]; 0.02 ppm): 0% | inhibition of growth at 0.1 ppm ([1]; 0.1 ppm): 0% | inhibition of growth at 0.0008 ppm ([2]; applied alone, 0.0008 ppm): 0% | inhibition of growth at 0.004 ppm ([2]; applied alone, 0.004 ppm): 10% | inhibition of growth at 0.02 ppm ([2]; applied alone, 0.02 ppm): 22% | inhibition of growth at 0.1 ppm ([2]; applied alone, 0.1 ppm): 44% | inhibition of growth at 0.0008 ppm ([3]; 0.0008 ppm, read-out: Efficacy): 0% | inhibition of growth at 0.004 ppm ([3]; 0.004 ppm, read-out: Efficacy): 0% | inhibition of growth at 0.02 ppm ([3]; 0.02 ppm, read-out: Efficacy): 0% | inhibition of growth at 0.1 ppm ([3]; 0.1 ppm, read-out: Efficacy): 49% | inhibition of growth at 0.0008 ppm ([4]; 0.0008 ppm alone): 0% | inhibition of growth at 0.0008 ppm ([4]; 0.0008 ppm): 0% | inhibition of growth at 0.004 ppm ([4]; 0.004 ppm alone): 0% | inhibition of growth at 0.004 ppm ([4]; 0.004 ppm): 0% | inhibition of growth at 0.02 ppm ([4]; 0.02 ppm alone): 10% | inhibition of growth at 0.02 ppm ([4]; 0.02 ppm): 10% | inhibition of growth at 0.1 ppm ([4]; 0.1 ppm alone): 19% | inhibition of growth at 0.1 ppm ([4]; 0.1 ppm): 19% | inhibition of growth at 0.1 ppm ([5]; 0.1 ppm): 100% | inhibition of growth at 0.0008 ppm ([6]; Fusarium culmorum, 0.0008 ppm, alone, read-out: Efficacy): 2% | inhibition of growth at 0.004 ppm ([6]; Fusarium culmorum, 0.004 ppm, alone, read-out: Efficacy): 6% | inhibition of growth at 0.02 ppm ([6]; Fusarium culmorum, 0.02 ppm, alone, read-out: Efficacy): 5% | inhibition of growth at 0.1 ppm ([6]; Fusarium culmorum, 0.1 ppm, alone, read-out: Efficacy): 2%

O=C1c2ccccc2C(=O)N1SC(Cl)(Cl)Cl [(5.012) folpet, folpet]
inhibition of growth at 0.008 ppm ([7]; 0.008 ppm): 7% | inhibition of growth at 1 ppm [7]: 100% | inhibition of growth at 0.04 ppm ([7]; single compound, 0.04 ppm): 0% | inhibition of growth at 0.2 ppm ([7]; single compound, 0.2 ppm): 16% | inhibition of growth at 1 ppm ([7]; single compound): 86% | inhibition of growth at 0.4 ppm ([1]; 0.4 ppm): 15% | inhibition of growth at 2 ppm ([1]; 2.0 ppm): 100% | inhibition of growth at 10 ppm ([1]; 10.0 ppm): 100% | inhibition of growth at 0.08 ppm ([8]; 0.08 ppm): 5% | inhibition of growth at 0.4 ppm ([8]; 0.4 ppm): 10% | inhibition of growth at 2 ppm ([8]; 2.0 ppm): 100% | inhibition of growth at 0.08 ppm ([9]; mixing partner alone, 0.08 ppm): 0% | inhibition of growth at 0.4 ppm ([9]; mixing partner alone, 0.4 ppm): 0% | inhibition of growth at 2 ppm ([9]; mixing partner alone, 2.0 ppm): 100% | inhibition of growth at 10 ppm ([9]; mixing partner alone, 10.0 ppm): 100% | inhibition of growth at 0.08 ppm ([9]; single active at 0.08 ppm): 0% | inhibition of growth at 0.4 ppm ([9]; single active at 0.4 ppm): 13% | inhibition of growth at 2 ppm ([9]; single active at 2.0 ppm): 98% | inhibition of growth at 10 ppm ([9]; single active at 10.0 ppm): 100% | inhibition of growth at 0.08 ppm ([2]; Table F10, 0.08 ppm alone): 12% | inhibition of growth at 2 ppm ([2]; Table F10, 2.0 ppm alone): 99% | inhibition of growth at 10 ppm ([2]; Table F10, 10.0 ppm alone): 100% | inhibition of growth at 0.08 ppm ([2]; applied alone, 0.08 ppm): 1% | inhibition of growth at 0.4 ppm ([2]; applied alone, 0.4 ppm): 56% | inhibition of growth at 2 ppm ([2]; applied alone, 2.0 ppm): 99% | inhibition of growth at 0.2 ppm [10]: 6% | inhibition of growth at 1 ppm [10]: 99% | inhibition of growth at 0.008 ppm ([10]; single compound, 0.008 ppm): 6% | inhibition of growth at 0.04 ppm ([10]; single compound, 0.04 ppm): 3% | inhibition of growth at 0.2 ppm ([10]; single compound): 7% | inhibition of growth at 1 ppm ([10]; single compound): 83% | inhibition of growth at 2 ppm ([3]; alone, 2.0 ppm, read-out: Efficacy %): 100% | inhibition of growth at 10 ppm ([3]; alone, 10.0 ppm, read-out: Efficacy %): 100% | inhibition of growth at 0.008 ppm ([11]; 0.008 ppm): 8% | inhibition of growth at 0.04 ppm ([11]; 0.04 ppm): 1% | inhibition of growth at 1 ppm ([11]; 1 ppm): 16% | inhibition of growth at 0.4 ppm ([4]; 0.4 ppm): 50% | inhibition of growth at 0.008 ppm ([12]; 0.008 ppm): 1% | inhibition of growth at 0.04 ppm ([12]; 0.04 ppm): 3% | inhibition of growth at 1 ppm ([12]; 1 ppm): 66% | inhibition of growth at 2 ppm ([5]; 2.0 ppm): 100% | inhibition of growth at 10 ppm ([5]; 10.0 ppm): 100% | inhibition of growth at 1 ppm [13]: 6% | inhibition of growth at 0.008 ppm ([14]; 0.008 ppm): 0% | inhibition of growth at 0.04 ppm ([14]; 0.04 ppm): 0% | inhibition of growth at 0.2 ppm ([14]; 0.2 ppm): 17% | inhibition of growth at 1 ppm ([14]; 1 ppm): 62% | Efficacy ([6]; 0.4 ppm alone): 0% | Efficacy ([6]; 10.0 ppm, alone): 100% | inhibition of growth at 0.08 ppm ([6]; Fusarium culmorum, 0.08 ppm, alone, read-out: Efficacy): 0% | inhibition of growth at 2 ppm ([6]; Fusarium culmorum, 2.0 ppm, alone, read-out: Efficacy): 100%
